Data: patent publication US9447086B2, “6-amino acid heteroaryldihydropyrimidines for the treatment and prophylaxis of hepatitis B virus infection” (priority 2012, dated 2016)
Values after ≈ are worked out from the molar mass of the structure shown. Where two headings read alike, the source gives them in different places.

What was measured:
[1] = Metabolic stability study in human microsome; type: in vitro ADME
Method in brief: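 Depletion of 1 μM compound followed by LC-MS/MS over 0–30 min (0, 3, 6, 9, 15, 30 min) after methanol quench. Incubations at 37 °C, pH 7.4 phosphate buffer, 0.5 mg/mL microsomal protein, with NADPH (1 mM) or a regenerating system as cofactor; controls lacked cofactor.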

HBV [2] = assay: Anti-HBV activity in vitro in HepG2.2.15 cells (extracellular HBV DNA by qPCR); type: cell-based, Hepatitis B virus; conditions: Hepatitis B virus
Method in brief: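 Supernatant HBV DNA was measured by qPCR after viral DNA extraction. Samples came from 5-day cultures of HepG2.2.15 cells, an HBV-genome-transfected HepG2 line, exposed to half-log compound dilutions in medium containing 0.5% DMSO.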

[3] = Lyophilisation solubility assay (Lysa); type: physicochemical; conditions: phosphate buffer, pH 6.5, aqueous buffer, thermodynamic from solid
Method in brief: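 Solubility in μg/mL is read by UV or HPLC-UV on filtrate, neat and diluted 1/10. Before filtration, the residue from evaporated 10 mM DMSO stock was taken up in pH 6.5 0.05 M phosphate buffer, then stirred 1 h, shaken 2 h and stood overnight, in duplicate.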

HBV [4] = assay: Selectivity index (CC50 value/EC50 value); type: cell-based, Hepatitis B virus
From the text: Based on FDA guidance, in order to support clinical testing in humans, the assessment of acceptable risk-benefit has to be achieved by providing clear evidence of in vitro antiviral activity (EC50) and cytotoxicity (CC50). It is important to establish that an investigational product has antiviral activity at concentrations that can be achieved in vivo without inducing toxic effects to cells. Furthermore, in a cell culture model, apparent antiviral activity of an investigational product can be the result of host cell death after exposure to the product. The relative effectiveness of the compound in inhibiting viral replication compared to inducing cell death is defined as the selectivity index (CC50 value/EC50 value). It is desirable to have a high selectivity index giving maximum antiviral activity with minimal cell toxicity.
The relative effectiveness of the compound in inhibiting viral replication compared to inducing cell death is defined as the selectivity index (CC50 value/EC50 value). It is desirable to have a high selectivity index giving maximum antiviral activity with minimal cell toxicity.

[5] = Cytotoxicity (CC50) in HepDE19 cells, CCK-8 cell viability; type: cell-based; conditions: human, HepDE19 cells
From the text: HepG2.2.15 and HepDE19 are stably-transfected cell lines containing the HBV genome. Both cell lines are derived from the hepatoblastoma cell line Hep G2 (American Type Culture Collection, ATCC® HB-8065™) by the published procedures described in references: MA Selles et al. Proc. Natl. Acad. Sci. USA 1987, 84, 1005-1009 and H Guo et al. Journal of Virology 2007, 81, 12472-12484, respectively. Both cell lines were maintained in Dulbecco's modified Eagle's medium (DMEM)-F12 medium supplemented with 10% fetal bovine serum, 100 U/mL penicillin, 100 μg/mL streptomycin, and 0.5 mg/mL of G418.
Five days after treatment, cell viability was measured by addition of 20 μL of CCK-8 reagent. Two hours after incubation at 37° C., the absorbance at wavelengths of 450 nm and 630 nm (OD450 and OD630) was recorded by a plate reader.

[6] = HepG2.2.15 cells, in-house data, read-out: EC50

SMILES	Human Hepatic Clearance [1]	EC50 (HBV [2]; [6])	solubility thermodynamic [3]	Selectivity index (CC50/EC50) (HBV [4])	CC50 at 5 days ([5]; read-out: CC50)	EC50 (HBV [2]; HepG2.2.15)	CC50 at 5 days [5]
CCOC(=O)C1=C(CN2CC(F)(F)CC[C@H]2C(=O)O)NC(c2nccs2)=N[C@H]1c1ccc(F)cc1Br [Example 107, (R)-4-(2-Bromo-4-fluoro-phenyl)-6-((S)-2-carboxy-5,5-difluoro-piperidin-1-ylmethyl)-2-thiazol-2-yl-1,4-dihydro-pyrimidine-5-carboxylic acid ethyl ester]	1.89 mL/min/kg	1.5 nM	510 µg/mL (≈ 868 µM)	16000	24000 nM		
CCOC(=O)C1=C(CN2CC(F)(F)C[C@H]2C(=O)O)NC(c2nccs2)=N[C@H]1c1ccc(F)c(F)c1 [Example 41, (S)-6-((S)-2-Carboxy-4,4-difluoro-pyrrolidin-1-ylmethyl)-4-(3,4-difluoro-phenyl)-2-thiazol-2-yl-1,4-dihydro-pyrimidine-5-carboxylic acid ethyl ester]	6.83 mL/min/kg	17 nM	> 630 µg/mL	2372	40000 nM		
[2H][C@@]1(c2ccc(F)cc2Cl)N=C(c2nccs2)NC(CN2CC(F)(F)C[C@H]2C(=O)O)=C1C(=O)OC [Example 3, (S)-6-((S)-2-Carboxy-4,4-difluoro-pyrrolidin-1-ylmethyl)-4-(2-chloro-4-fluoro-phenyl)-[4-^2H]-2-thiazol-2-yl-1,4-dihydro-pyrimidine-5-carboxylic acid methyl ester]	9.21 mL/min/kg	1.1 nM	> 644 µg/mL	88182	97000 nM		
COC(=O)C1=C(CN2CC(F)(F)C[C@H]2C(=O)O)NC(c2nc(C(F)(F)F)cs2)=N[C@H]1c1ccc(F)cc1Cl [Example 25, (R)-6-((S)-2-Carboxy-4,4-difluoro-pyrrolidin-1-ylmethyl)-4-(2-chloro-4-fluoro-phenyl)-2-(4-trifluoromethyl-thiazol-2-yl)-1,4-dihydro-pyrimidine-5-carboxylic acid methyl ester]	9.34 mL/min/kg	5 nM	546 µg/mL (≈ 937 µM)	>20000	> 100000 nM		
CCOC(=O)C1=C(CN2CCOC[C@H]2C(=O)O)NC(c2nccs2)=N[C@H]1c1ccc(F)c(F)c1 [Example 42, (S)-4-[(S)-6-(3,4-Difluoro-phenyl)-5-ethoxycarbonyl-2-thiazol-2-yl-3,6-dihydro-pyrimidin-4-ylmethyl]-morpholine-3-carboxylic acid]	5.56 mL/min/kg	10 nM	> 613 µg/mL	>10000	> 100000 nM		
COC(=O)C1=C(CN2CC(F)(F)C[C@H]2C(=O)O)NC(c2nccs2)=N[C@H]1c1ccc(Cl)cc1Cl [Example 85, (R)-6-((S)-2-Carboxy-4,4-difluoro-pyrrolidin-1-ylmethyl)-4-(2,4-dichloro-phenyl)-2-thiazol-2-yl-1,4-dihydro-pyrimidine-5-carboxylic acid methyl ester]	6.91 mL/min/kg	6.2 nM	> 599 µg/mL	10694	66000 nM		
CCOC(=O)C1=C(CN2CCO[C@H](C)[C@H]2C(=O)O)NC(c2nccs2)=N[C@H]1c1ccccc1Cl [Example 117, (2R,3S)-4-[(R)-6-(2-Chloro-phenyl)-5-ethoxycarbonyl-2-thiazol-2-yl-3,6-dihydro-pyrimidin-4-ylmethyl]-2-methyl-morpholine-3-carboxylic acid]	0 mL/min/kg	1.5 nM	> 628 µg/mL	66667	> 100000 nM		
CCOC(=O)C1=C(CN2CCO[C@H](C)[C@H]2C(=O)O)NC(c2nccs2)=N[C@H]1c1cccc(F)c1Cl [Example 118, (2R,3S)-4-[(R)-6-(2-Chloro-3-fluoro-phenyl)-5-ethoxycarbonyl-2-thiazol-2-yl-3,6-dihydro-pyrimidin-4-ylmethyl]-2-methyl-morpholine-3-carboxylic acid]	0.1 mL/min/kg	0.5 nM	> 630 µg/mL	>200000	> 100000 nM		
CCOC(=O)C1=C(CN2CC(F)(F)C[C@H]2C(=O)O)NC(c2nccs2)=N[C@H]1c1ccc(Cl)cc1Cl [Example 38, (R)-6-((S)-2-Carboxy-4,4-difluoro-pyrrolidin-1-ylmethyl)-4-(2,4-dichloro-phenyl)-2-thiazol-2-yl-1,4-dihydro-pyrimidine-5-carboxylic acid ethyl ester]	9.3 mL/min/kg	3.3 nM	291 µg/mL (≈ 534 µM)	6315	21000 nM		
CCOC(=O)C1=C(CN2CC(F)(F)C[C@H]2C(=O)O)NC(c2nccs2)=N[C@H]1c1ccc(Br)cc1 [Example 130, (2S)-1-[[(4S)-4-(4-Bromophenyl)-5-ethoxycarbonyl-2-(1,3-thiazol-2-yl)-1,4-dihydropyrimidin-6-yl]methyl]-4,4-difluoropyrrolidine-2-carboxylic acid]	3.92 mL/min/kg	6 nM	> 625 µg/mL	2833	17000 nM		
CCOC(=O)C1=C(CN2CCOC[C@H]2C(=O)O)NC(c2nccs2)=N[C@H]1c1ccc(Cl)c(Cl)c1 [Example 46, (S)-4-[(S)-6-(3,4-Dichloro-phenyl)-5-ethoxycarbonyl-2-thiazol-2-yl-3,6-dihydro-pyrimidin-4-ylmethyl]-morpholine-3-carboxylic acid]	0 mL/min/kg	16 nM	> 655 µg/mL	2212	36000 nM		
COC(=O)C1=C(CN2CC(F)(F)C[C@H]2C(=O)O)NC(c2nc(C3CC3)cs2)=N[C@H]1c1ccc(F)cc1Cl [Example 10, (R)-6-((S)-2-Carboxy-4,4-difluoro-pyrrolidin-1-ylmethyl)-4-(2-chloro-4-fluoro-phenyl)-2-(4-cyclopropyl-thiazol-2-yl)-1,4-dihydro-pyrimidine-5-carboxylic acid methyl ester]	8.76 mL/min/kg	7.3 nM	246 µg/mL (≈ 443 µM)	5342	39000 nM		
CCOC(=O)C1=C(CN2CC(F)(F)C[C@H]2C(=O)O)NC(c2nccs2)=N[C@H]1c1ccc(F)cc1Cl [Example 34, (R)-6-((S)-2-Carboxy-4,4-difluoro-pyrrolidin-1-ylmethyl)-4-(2-chloro-4-fluoro-phenyl)-2-thiazol-2-yl-1,4-dihydro-pyrimidine-5-carboxylic acid ethyl ester]	7.46 mL/min/kg	10 nM	531 µg/mL (≈ 1000 µM)	>10000	> 100000 nM		
COC(=O)C1=C(CN2CC(F)(F)C[C@H]2C(=O)O)NC(c2nccs2)=N[C@H]1c1ccc(F)cc1Br [Example 84, (R)-4-(2-Bromo-4-fluoro-phenyl)-6-((S)-2-carboxy-4,4-difluoro-pyrrolidin-1-ylmethyl)-2-thiazol-2-yl-1,4-dihydro-pyrimidine-5-carboxylic acid methyl ester]	9.3 mL/min/kg		> 668 µg/mL	>41667		2.4 nM	> 100000 nM
CCOC(=O)C1=C(CN2CCOC[C@H]2C(=O)O)NC(c2nccs2)=N[C@H]1c1ccc(Cl)cc1F [Example 49, (S)-4-[(R)-6-(4-Chloro-2-fluoro-phenyl)-5-ethoxycarbonyl-2-thiazol-2-yl-3,6-dihydro-pyrimidin-4-ylmethyl]-morpholine-3-carboxylic acid]	0 mL/min/kg	4.7 nM	> 679 µg/mL	8936	42000 nM		
